From patent US11696924B2, “Combination therapy using PDK1 and PI3K inhibitors” (MEMORIAL SLOAN-KETTERING CANCER CENTER, priority 2015, dated 2023)
“Also recorded” adds a separate entry of the source. Where two headings read alike, the source gives them in different places.

Tests used:
mTORC1 = test: Western blot of mTORC1 signaling (pS6K, pS6, p4EBP1); format: cell-based; details: for sustained S6 phosphorylation: HCC1954 cells, presence or absence of BYL719 (1 μM)
Text: (§2) For western blot analysis proteins were extracted in RIPA buffer supplemented with protease and phosphatase inhibitors (Roche). Protein lysates were separated using SDS-PAGE gels and transferred to a PVDF membrane. Then, membranes were probed using specific antibodies. PDK1, pAKT (S473), pAKT (T308), pS6K (T389), pS6 (S240/4), pS6 (235/6), p4EBP1 (S65), PARP, Actin, pRSK (S227), cleaved Caspase 3, pFOXO1/3 (T24/T32), SGK1, SGK2, SGK3, pNDRG1 (T346), NDRG1, Flag, HA, and phospho-RXRXX(S/T) (SEQ ID NO: 1) were from Cell Signaling Technology (CST).

pNDRG1 (T346) = test: Western blot of NDRG1 phosphorylation (T346); format: cell-based
Procedure: A) SGK1 mRNA levels in breast cancer cell lines sensitive or resistant to BYL719 (n=27). B) SGK1 mRNA levels in PIK3CA-mutant breast cancer cell lines sensitive or resistant to BYL719. C) Western blot of SGK1, SGK2, SGK3 and phosphorylated NDRG1 in a panel of PIK3CA—mutant breast cancer cell lines sensitive or resistant to BYL719. D) Western blot for NDRG1 and phosphorylated NDRG1 (T346) in BYL719-sensitive and -resistant breast cancer cell lines treated with BYL719 (1 μM) for 4 h. […] P values are calculated using Student's t-test. Error bars are ±SEM.
A) Dose-response curves from MDA-MB-361 cells transduced with pLenti7.3-LacZ or pLenti7.3-SGK1 (Δ60, S422D) treated with increasing concentrations of BYL719 for 6 days. B) Western blot analysis of LacZ and SGK1 MDA-MB-361 cells treated with BYL719 (1 μM) for 4 h. […] The DFG motif amino acids are indicated (D240, F241, G242). […] Hydrogen bonds are shown as dotted lines. […] L) IHC analysis of tumors from K collected at the end of the experiment. M) Top panel: growth curves of HCC1954 cells stably expressing doxycycline-inducible control (REN) or SGK1 knockdown treated with increasing concentrations of BYL719 for 6 days. Bottom panel: Western blot analysis of GFP-sorted control (REN) and SGK1 shRNA cells treated with BYL719 (1 μM) for 4 h. P values are calculated using Student's t-test. Error bars are ±SEM.
(§1) Then, membranes were probed using specific antibodies.

TSC2 (S939) = test: Western blot of phosphorylated TSC2 (S939); format: cell-based; details: HCC1954, PD0325901 1 μM, GSK1120212 50 nM, ± BYL719, 4 h
pRSK2 (S227) = test: Western blot of phosphorylated RSK2 (S227), PDK1 target; format: cell-based; details: HCC1954 and JIMT1, 1 μM
Procedure: A) Dose-response curves from HCC1954 or JIMT1 shGFP and shPDK1 cells treated with BYL719 for 6 days. […] Staurosporine is used as a positive control (1 μM; 4 h). E) HCC1954 shGFP and shPDK1 in vivo xenograft treated with Vehicle or BYL719 (n=10/arm). F) IHC analysis of tumors from E collected at the end of the experiment. […] Staurosporine is used as a positive control (1 μM, 4 h). […] L) IHC analysis of tumors from K collected at the end of the experiment. M, N) JIMT1 in vivo xenograft tested as described in (K) and (L) for HCC1954 in vivo xenograft. P values are calculated using Student's t-test. Error bars are ±SEM.
as §1

S6K signaling [1] = details: up to 30 μM, 4 h, TSC2 KO mouse fibroblasts
Procedure: (§3) Recombinant GST-S6 was used as a substrate and phosphorylated S6 (S235/6) antibody was used for the detection of phosphorylated substrate by Western blot. […] Everolimus was used as a positive control at 200 nM. Error bars are ±SEM. […] Quantification of the m^7GTP-precipitated proteins is indicated in fold change. AZD8055 is used as a control at 1 μM). […] Error bars are ±SEM.
as §2

mTOR = mTOR (Homo sapiens, UniProt P42345); details: read-out: IC50, mTOR; 4EBP1 as substrate
PKC = test: selectivity screening, panel of 140 kinases; details: 1 μM
Procedure: (§4) IC50 value is indicated. […] Recombinant GST-S6 was used as a substrate and phosphorylated S6 (S235/6) antibody was used for the detection of phosphorylated substrate by Western blot. IC50 value is indicated. […] Everolimus was used as a positive control at 200 nM. Error bars are ±SEM. […] Quantification of the m^7GTP-precipitated proteins is indicated in fold change. AZD8055 is used as a control at 1 μM). […] Error bars are ±SEM.

RSK = test: selectivity screening, panel of 140 kinases; details: 1 μM
Procedure: as §4

CaCO2 cells = details: cited from earlier work
SGK2 = SGK2 (Homo sapiens, UniProt Q9HBY8); test: in vitro SGK2 kinase activity assay; format: biochemical
S6K1 = test: recombinant in vitro kinase assay of S6K ([…] peptide substrate); format: biochemical
S6K signaling [2] = test: Western blot of S6K targets in fibroblasts of a TSC2-null lymphangioleiomyomatosis patient; details: up to 30 μM, 4 h, TSC2-null LAM patient fibroblasts
Procedure: as §3, §2

PDK1 = PDK1 (Homo sapiens, UniProt O15530); test: selectivity screening, panel of 140 kinases; details: 1 μM
Procedure: as §4

AKT1 = AKT1 (Homo sapiens, UniProt P31749); test: selectivity screening, panel of 140 kinases; details: 1 μM
Procedure: as §4

SGK3 = SGK3 (Homo sapiens, UniProt Q96BR1); test: in vitro SGK3 kinase activity assay; format: biochemical
S6K (ΔCT T389E) = test: S6K kinase assay in 293T cells overexpressing constitutively active S6K; format: cell-based
HCC1954 xenografts = test: HCC1954 in vivo xenograft; parameters: species or system mice; details: HCC1954 xenografts, end of the experiment
Procedure: Animals were maintained and treated in accordance with Institutional Guidelines of Memorial Sloan Kettering Cancer Center (Protocol number 12-10-019). 5×10^6 cells in 1:1 PBS/Matrigel (Corning) were injected subcutaneously into six-week-old female athymic Foxn1^nu nude mice.
When tumors reached a volume of ˜150 mm^3 mice were randomized, treated, and tumors were measured twice a week during a month. At least 10 tumors per group were used in all the studies. […] Tumors were harvested at the end of the experiment three hours after the last dosage, fixed in 4% formaldehyde in PBS, and paraffin-embedded. […] Primary staining was followed by 60 minutes incubation with biotinylated goat anti-rabbit IgG (Vector labs) 1:200. Blocker D, Streptavidin-HRP and DAB detection kit (Ventana Medical Systems) were used according to the manufacturer instructions.

SGK1 = SGK1 (Homo sapiens, UniProt O00141); test: ATP-competition assay; details: ATP at 100, 250, 350 and 500 μM
Text: Recombinant GST-S6 was used as a substrate and phosphorylated S6 (S235/6) antibody was used for the detection of phosphorylated substrate by Western blot.

S6K = S6K (Homo sapiens, UniProt P23443); test: selectivity screening, panel of 140 kinases; details: 1 μM
Chain of S6K (P23443 whole entry): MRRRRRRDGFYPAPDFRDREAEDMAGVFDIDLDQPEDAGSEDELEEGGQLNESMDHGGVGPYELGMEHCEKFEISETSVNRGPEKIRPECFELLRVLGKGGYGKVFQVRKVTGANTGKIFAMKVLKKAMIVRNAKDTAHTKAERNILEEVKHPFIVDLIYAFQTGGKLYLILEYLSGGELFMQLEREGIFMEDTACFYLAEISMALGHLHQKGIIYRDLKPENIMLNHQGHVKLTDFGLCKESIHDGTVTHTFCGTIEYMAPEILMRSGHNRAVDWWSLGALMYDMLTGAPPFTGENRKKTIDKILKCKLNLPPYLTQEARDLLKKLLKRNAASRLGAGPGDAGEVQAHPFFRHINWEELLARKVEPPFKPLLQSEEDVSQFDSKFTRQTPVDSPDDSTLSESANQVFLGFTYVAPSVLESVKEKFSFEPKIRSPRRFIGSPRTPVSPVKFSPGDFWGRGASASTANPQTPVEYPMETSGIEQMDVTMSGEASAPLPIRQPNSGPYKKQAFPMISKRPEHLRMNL
Procedure: as §4

Chain of SGK1 (O00141 whole entry): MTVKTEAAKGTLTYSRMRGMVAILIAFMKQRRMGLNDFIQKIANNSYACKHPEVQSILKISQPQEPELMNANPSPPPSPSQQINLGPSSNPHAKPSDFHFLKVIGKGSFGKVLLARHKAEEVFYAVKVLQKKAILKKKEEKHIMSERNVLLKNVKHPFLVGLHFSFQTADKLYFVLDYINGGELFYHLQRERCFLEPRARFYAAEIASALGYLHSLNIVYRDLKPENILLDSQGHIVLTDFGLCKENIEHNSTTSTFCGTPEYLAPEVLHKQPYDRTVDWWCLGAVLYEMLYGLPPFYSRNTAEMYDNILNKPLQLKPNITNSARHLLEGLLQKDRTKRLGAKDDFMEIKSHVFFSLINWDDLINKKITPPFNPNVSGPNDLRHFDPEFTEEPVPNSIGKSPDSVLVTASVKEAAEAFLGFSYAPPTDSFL
Chain of SGK2 (Q9HBY8 whole entry): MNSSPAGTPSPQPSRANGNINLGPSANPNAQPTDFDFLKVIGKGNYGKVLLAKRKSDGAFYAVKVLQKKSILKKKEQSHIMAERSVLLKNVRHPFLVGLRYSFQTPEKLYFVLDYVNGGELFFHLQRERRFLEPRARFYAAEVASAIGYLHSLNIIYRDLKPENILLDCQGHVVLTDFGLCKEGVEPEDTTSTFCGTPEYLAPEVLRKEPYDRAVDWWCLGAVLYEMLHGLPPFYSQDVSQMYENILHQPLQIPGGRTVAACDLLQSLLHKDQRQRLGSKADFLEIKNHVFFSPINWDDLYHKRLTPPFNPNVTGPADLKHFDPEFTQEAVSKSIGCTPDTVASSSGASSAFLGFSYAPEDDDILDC
Chain of AKT1 (P31749 whole entry): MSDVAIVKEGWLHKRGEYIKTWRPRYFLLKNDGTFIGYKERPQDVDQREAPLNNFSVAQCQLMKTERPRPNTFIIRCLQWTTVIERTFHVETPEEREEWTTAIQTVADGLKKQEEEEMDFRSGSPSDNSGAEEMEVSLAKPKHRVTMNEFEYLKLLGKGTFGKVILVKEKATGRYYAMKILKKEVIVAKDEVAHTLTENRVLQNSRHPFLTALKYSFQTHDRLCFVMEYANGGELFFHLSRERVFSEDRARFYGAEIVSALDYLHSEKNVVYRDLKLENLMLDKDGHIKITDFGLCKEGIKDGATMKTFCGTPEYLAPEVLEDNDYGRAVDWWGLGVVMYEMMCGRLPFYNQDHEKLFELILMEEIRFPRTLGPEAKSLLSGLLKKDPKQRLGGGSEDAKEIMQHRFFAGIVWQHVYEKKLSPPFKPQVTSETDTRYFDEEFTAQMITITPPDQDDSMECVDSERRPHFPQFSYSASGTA
Chain of PDK1 (O15530 whole entry): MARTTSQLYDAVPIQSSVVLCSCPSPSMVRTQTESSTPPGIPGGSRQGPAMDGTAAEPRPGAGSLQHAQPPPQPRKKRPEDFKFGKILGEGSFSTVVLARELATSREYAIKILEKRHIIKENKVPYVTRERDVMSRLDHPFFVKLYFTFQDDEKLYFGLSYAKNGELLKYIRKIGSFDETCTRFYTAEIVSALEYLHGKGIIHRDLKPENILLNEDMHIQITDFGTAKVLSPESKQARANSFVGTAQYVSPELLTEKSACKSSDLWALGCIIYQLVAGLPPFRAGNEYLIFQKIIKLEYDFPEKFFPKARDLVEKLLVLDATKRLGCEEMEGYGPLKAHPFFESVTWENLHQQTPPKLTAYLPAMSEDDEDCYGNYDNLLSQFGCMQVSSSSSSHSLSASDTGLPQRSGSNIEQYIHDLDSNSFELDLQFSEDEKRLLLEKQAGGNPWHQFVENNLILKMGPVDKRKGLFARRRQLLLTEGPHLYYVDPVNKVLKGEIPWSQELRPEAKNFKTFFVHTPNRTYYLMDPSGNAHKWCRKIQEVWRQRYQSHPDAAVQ
Chain of SGK3 (Q96BR1 whole entry): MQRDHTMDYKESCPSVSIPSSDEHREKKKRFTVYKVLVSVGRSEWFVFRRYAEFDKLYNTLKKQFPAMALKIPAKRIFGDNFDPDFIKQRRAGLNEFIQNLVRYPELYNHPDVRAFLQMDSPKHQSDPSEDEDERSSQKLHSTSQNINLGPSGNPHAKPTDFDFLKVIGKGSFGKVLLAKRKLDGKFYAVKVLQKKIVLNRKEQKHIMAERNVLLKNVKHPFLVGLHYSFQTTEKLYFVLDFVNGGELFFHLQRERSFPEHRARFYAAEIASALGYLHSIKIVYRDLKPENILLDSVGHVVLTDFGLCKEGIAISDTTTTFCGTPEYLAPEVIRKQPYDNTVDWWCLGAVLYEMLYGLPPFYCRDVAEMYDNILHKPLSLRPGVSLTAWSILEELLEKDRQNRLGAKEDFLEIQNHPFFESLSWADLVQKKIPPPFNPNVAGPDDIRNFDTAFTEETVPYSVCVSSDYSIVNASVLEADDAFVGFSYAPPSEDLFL

## O=CC[C@@H](O)[C@H](O)[C@H](O)CO [2-deoxyglucose]
mTORC1
  sustained S6 phosphorylation: unable to rescue the sustained phosphorylation of S6

## N#Cc1c(O)c2c(-c3ccc(-c4ccccc4O)cc3)csc2[nH]c1=O [A769662]
mTORC1
  sustained S6 phosphorylation: unable to rescue the sustained phosphorylation of S6

## COc1ccc(-c2ccc3c(N4CCOC[C@@H]4C)nc(N4CCOC[C@@H]4C)nc3n2)cc1CO [AZD8055]
pNDRG1 (T346); HCC1954, increasing concentrations, single agent
  pFOXO3 (T32) and pNDRG1 (T346) levels: did not reduce the levels of the substrates pFOXO3 (T32) and pNDRG1 (T346)

## CC(=O)Nc1cccc(-n2c(=O)n(C3CC3)c(=O)c3c(Nc4ccc(I)cc4F)n(C)c(=O)c(C)c32)c1 [GSK1120212]
TSC2 (S939)
  TSC2 phosphorylation at S939 (or mTORC1 downstream signaling): did not detect changes in TSC2 phosphorylation at S939

## CNc1nc(-c2ccc3c(N)n[nH]c3c2)cc(N2C[C@@H](C(=O)NC3CCCCC3)CC[C@H]2C)n1 [GSK2334470]
pNDRG1 (T346); HCC1954, GSK2334470 1 μM plus AZD8055
  phosphorylation of FOXO3 and NDRG1, added to AZD8055: marked decrease in the phosphorylation of both FOXO3 and NDRG1
pRSK2 (S227)
  pRSK2 (S227): appreciably reduced; also recorded: inhibited when cells are treated with GSK2334470 alone or in combination

## O=C(NOC[C@H](O)CO)c1ccc(F)c(F)c1Nc1ccc(I)cc1F [PD0325901]
TSC2 (S939)
  TSC2 phosphorylation at S939 (or mTORC1 downstream signaling): did not detect changes in TSC2 phosphorylation at S939

## Nc1n[nH]c2nc(-c3ccc(NS(=O)(=O)c4cccc(Cl)c4Cl)cc3)cnc12 [SGK1-inh]
S6K signaling [1]
  S6K signaling: pS6 (S235/6), pS6 (S240/4), pmTOR (S2448): not able to reduce S6K signaling
mTOR
  IC50: > 5000 nM
PKC
  activity against PKC: no activity
RSK
  activity against RSK: no activity
CaCO2 cells
  permeability: 13.3 ×10⁻⁶ cm/s
pNDRG1 (T346); HCC1954 cells, 4 hours, in the presence of BYL719 (1 μM)
  appropriate concentration to inhibit endogenous SGK1 (NDRG1 phosphorylation): 10 µM
SGK2
  IC50: 2.8 nM
S6K1
  IC50: 33 nM
S6K signaling [2]
  S6K signaling: pS6 (S235/6), pS6 (S240/4), pmTOR (S2448): not able to reduce S6K signaling
PDK1
  activity against PDK1: no activity
mTORC1; BYL719-resistant cells (HCC1954, JIMT1), 4 h, BYL719 1 μM, GSK2334470 1 μM, SGK1-inh 10 μM
  mTORC1 signaling: some activity towards S6K signaling
AKT1
  activity against AKT1: no activity
SGK3
  IC50: 590 nM
S6K (ΔCT T389E); 293T cells, HA-S6K (ΔCT T389E), GST-S6 substrate, read-out: IC50, S6K at the cellular level
  IC50: ~20000 nM
S6K (ΔCT T389E); conclusion from cellular S6K assays
  concentrations below which there is no activity towards S6K: 20 to 30 µM
HCC1954 xenografts
  pS6 (S240/4) and 4EBP1 (T37/46) in tumors, IHC: remained elevated
SGK1
  effect of increasing ATP on potency: decreased the potency
S6K
  activity against S6K: inhibited
